# Reference: ChEMBL document CHEMBL4118201, “Design and synthesis of new antitumor agents with the 1,7-epoxycyclononane framework. Study of their anticancer action mechanism by a model compound” (Bioorg Med Chem, 2018)
# pIC50: −log10 of the molar value. Activity calls are given as the source filed them. The calls are words filed in the database; no cut-off is given here.
# Key:
# MCF7 [1] = experiment: Antiproliferative activity against human MCF7 cells after 24 hrs by XTT assay; type: functional, cell-based; details: MCF7, 24 h
# MCF7 [2] = experiment: Antiproliferative activity against human MCF7 cells after 72 hrs by XTT assay; type: functional, cell-based; details: MCF7, 72 h
# HL-60 [3] = experiment: Antiproliferative activity against human HL60 cells after 24 hrs by XTT assay; type: functional, cell-based; details: HL-60, 24 h
# HL-60 [4] = experiment: Antiproliferative activity against human HL60 cells after 72 hrs by XTT assay; type: functional, cell-based; details: HL-60, 72 h
# HL-60 [5] = experiment: Cell cycle arrest in human HL60 cells assessed as accumulation at sub-G0/G1 phase at IC50 after 24 hrs by propidium iodide staining based flow cytometric method (reference value: 3.9%); type: functional
# HL-60 [6] = experiment: Cell cycle arrest in human HL60 cells assessed as accumulation at G0/G1 phase at IC50 after 24 hrs by propidium iodide staining based flow cytometric method (reference value: 51.7%); type: functional
# HL-60 [7] = experiment: Cell cycle arrest in human HL60 cells assessed as accumulation at S-phase at IC50 after 24 hrs by propidium iodide staining based flow cytometric method (reference value: 34.24%); type: functional
# HL-60 [8] = experiment: Cell cycle arrest in human HL60 cells assessed as accumulation at G2/M-phase at IC50 after 24 hrs by propidium iodide staining based flow cytometric method (reference value: 14.06%); type: functional
# MCF7 [9] = experiment: Cell cycle arrest in human MCF7 cells assessed as accumulation at sub-G0/G1 phase at IC50 after 24 hrs by propidium iodide staining based flow cytometric method; type: functional
# MCF7 [10] = experiment: Cell cycle arrest in human MCF7 cells assessed as accumulation at G0/G1 phase at IC50 after 24 hrs by propidium iodide staining based flow cytometric method; type: functional
# MCF7 [11] = experiment: Cell cycle arrest in human MCF7 cells assessed as accumulation at S-phase at IC50 after 24 hrs by propidium iodide staining based flow cytometric method; type: functional
# MCF7 [12] = experiment: Cell cycle arrest in human MCF7 cells assessed as accumulation at G2/M-phase at IC50 after 24 hrs by propidium iodide staining based flow cytometric method; type: functional
# HL-60 [13] = experiment: Induction of apoptosis in human HL60 cells assessed as viable cells at IC50 after 24 hrs by annexin-V-FITC/propidium iodide staining based flow cytometric analysis (reference value: 93.81%); type: functional
# HL-60 [14] = experiment: Induction of apoptosis in human HL60 cells assessed as early apoptotic cells at IC50 after 24 hrs by annexin-V-FITC/propidium iodide staining based flow cytometric analysis (reference value: 4.2%); type: functional
# HL-60 [15] = experiment: Induction of apoptosis in human HL60 cells assessed as late apoptotic cells at IC50 after 24 hrs by annexin-V-FITC/propidium iodide staining based flow cytometric analysis (reference value: 1.93%); type: functional
# HL-60 [16] = experiment: Induction of apoptosis in human HL60 cells assessed as necrotic cells at IC50 after 24 hrs by annexin-V-FITC/propidium iodide staining based flow cytometric analysis (reference value: 0.06%); type: functional
# MCF7 [17] = experiment: Induction of apoptosis in human MCF7 cells assessed as microtubule disintegration at IC50 after 24 hrs by indirect immunofluorescence analysis; type: functional, cell-based
# MCF7 [18] = experiment: Induction of apoptosis in human MCF7 cells assessed as nuclear fragmentation at IC50 after 24 hrs by DAPI staining based immunofluorescence microscopic analysis; type: functional, cell-based
# MCF7 [19] = experiment: Induction of apoptosis in human MCF7 cells assessed as nuclear condensation at IC50 after 24 hrs by DAPI staining based immunofluorescence microscopic analysis; type: functional, cell-based
# MCF7 [20] = experiment: Induction of apoptosis in human MCF7 cells assessed as cell blobbing at IC50 after 24 hrs by DAPI staining based immunofluorescence microscopic analysis; type: functional
# MCF7 [21] = experiment: Induction of apoptosis in human MCF7 cells assessed as reduction in cell size at IC50 after 24 hrs by DAPI staining based immunofluorescence microscopic analysis; type: functional
# MCF7 [22] = experiment: Induction of apoptosis in human MCF7 cells assessed as shrinkage of cell core at IC50 after 24 hrs by DAPI staining based immunofluorescence microscopic analysis; type: functional
# MCF7 [23] = experiment: Induction of apoptosis in human MCF7 cells assessed as DNA condensation at IC50 after 24 hrs by DAPI staining based immunofluorescence microscopic analysis; type: functional, cell-based
# MCF7 [24] = experiment: Induction of apoptosis in human MCF7 cells assessed as formation of apoptotic bodies at IC50 after 24 hrs by DAPI staining based immunofluorescence microscopic analysis; type: functional, cell-based
# Calf thymus DNA = experiment: Binding affinity to calf thymus DNA at 0.1 to 0.5 molar ratio per nucleotide incubated for 24 hrs under dark condition by circular dichroism spectral analysis; type: nucleic-acid assay; details: Bos taurus
# DNA [25] = experiment: Binding affinity to Escherichia coli supercoiled pBR322 DNA assessed as DNA structural variation at 0.1 to 0.5 molar ratio per nucleotide incubated for 24 hrs under dark condition by ethidium bromide staining based agarose gel electrophoresis; type: nucleic-acid assay
# DNA [26] = experiment: Binding affinity to Escherichia coli supercoiled pBR322 DNA assessed as 0 to 2 cross links per DNA molecule at 0.005 molar ratio per nucleotide incubated for 24 hrs under dark condition by tapping mode atomic force microscopic analysis (reference value: 49%); type: nucleic-acid assay
# DNA [27] = experiment: Binding affinity to Escherichia coli supercoiled pBR322 DNA assessed as 3 to 5 cross links per DNA molecule at 0.005 molar ratio per nucleotide incubated for 24 hrs under dark condition by tapping mode atomic force microscopic analysis (reference value: 37%); type: nucleic-acid assay
# DNA [28] = experiment: Binding affinity to Escherichia coli supercoiled pBR322 DNA assessed as 6 to 8 cross links per DNA molecule at 0.005 molar ratio per nucleotide incubated for 24 hrs under dark condition by tapping mode atomic force microscopic analysis (reference value: 12%); type: nucleic-acid assay
# DNA [29] = experiment: Binding affinity to Escherichia coli supercoiled pBR322 DNA assessed as 9 to 10 cross links per DNA molecule at 0.005 molar ratio per nucleotide incubated for 24 hrs under dark condition by tapping mode atomic force microscopic analysis (reference value: 2%); type: nucleic-acid assay
# DNA [30] = experiment: Binding affinity to Escherichia coli supercoiled pBR322 DNA assessed as more than 10 cross links per DNA molecule at 0.005 molar ratio per nucleotide incubated for 24 hrs under dark condition by tapping mode atomic force microscopic analysis (reference value: 1%); type: nucleic-acid assay
# DNA [31] = experiment: Binding affinity to Escherichia coli supercoiled pBR322 DNA assessed as supercoiled areas of plasmid DNA at 0.005 molar ratio per nucleotide incubated for 24 hrs under dark condition by tapping mode atomic force microscopic analysis (reference value: 3.5%); type: nucleic-acid assay
# DNA [32] = experiment: Binding affinity to Escherichia coli supercoiled pBR322 DNA assessed as DNA undergoing cross links at 0.005 molar ratio per nucleotide incubated for 24 hrs under dark condition by tapping mode atomic force microscopic analysis; type: nucleic-acid assay
# DNA [33] = experiment: Binding affinity to Escherichia coli supercoiled pBR322 DNA assessed as DNA undergoing kinks at 0.005 molar ratio per nucleotide incubated for 24 hrs under dark condition by tapping mode atomic force microscopic analysis; type: nucleic-acid assay
smiles,measurement,setting,value
C[C@H]1[C@H]2CC[C@H](O2)[C@]2(C)[C@@H](OCc3ccccc3)C(=O)C[C@]12O (relative stereo),pIC50,MCF7 [1],< 3.60
same,pIC50,MCF7 [2],< 3.60
same,pIC50,HL-60 [3],< 3.60
same,pIC50,HL-60 [4],< 3.60
COC(=O)Nc1nc2cc(C(=O)c3cccs3)ccc2[nH]1 [NOCODAZOLE],Activity,HL-60 [5],14.11%
same,Activity,HL-60 [6],45.28%
same,Activity,HL-60 [7],21.26%
same,Activity,HL-60 [8],33.46%
CC(=O)O[C@H](OCc1ccccc1)[C@]1(C)C(=O)[C@@H](I)C(=O)[C@@H](C)[C@@H]2CC[C@H]1O2,pIC50,MCF7 [1],4.57
same,pIC50,MCF7 [2],4.73
same,pIC50,HL-60 [3],5.52
same,pIC50,HL-60 [4],5.49
same,Activity,MCF7 [9],Active
same,Activity,HL-60 [5],31.14%
same,Activity,HL-60 [6],67.37%
same,Activity,HL-60 [7],26.31%
same,Activity,HL-60 [8],6.33%
same,Activity,MCF7 [10],Active
same,Activity,MCF7 [11],Active
same,Activity,MCF7 [12],inactive
same,Activity,HL-60 [13],55.71%
same,Activity,HL-60 [14],16.97%
same,Activity,HL-60 [15],26.85%
same,Activity,HL-60 [16],0.35%
same,Activity,MCF7 [17],Active
same,Activity,MCF7 [18],Active
same,Activity,MCF7 [19],Active
same,Activity,MCF7 [20],Active
same,Activity,MCF7 [21],Active
same,Activity,MCF7 [22],Active
same,Activity,MCF7 [23],Active
same,Activity,MCF7 [24],Active
same,Activity,Calf thymus DNA,inactive
same,Activity,DNA [25],inactive
same,Activity,DNA [26],51%
same,Activity,DNA [27],28%
same,Activity,DNA [28],19%
same,Activity,DNA [29],1%
same,Activity,DNA [30],1%
same,Activity,DNA [31],3.6%
same,Activity,DNA [32],inactive
same,Activity,DNA [33],inactive
